Patent US10039724B2, “7-hydroxy cannabidiol (7-OH-CBD) for use in the treatment of non-alcoholic fatty liver disease (NAFLD)” (GW Pharma Limited, priority 2014, dated 2018)

How the values were obtained:
[1] = test system: HHL5 cells; assay: MTT cell viability assay in HHL5 cells; assay type: cell-based; details: HHL5 cells treated in parallel
Description: (§1) HHL5 cells seeded in 96-well plates were grown to 90% confluence and then treated with 100 uM oleic acid (OA) or DMSO (−) for 24 hours in the absence or presence of cannabinoids at the indicated concentrations.
(§2) MTT (3-[4,5-dimethyltiazol-2yl]-2,5 diphenyltetrazolium bromide) (5 mg/ml differentiation media) was added to cells treated as described above, and cells were incubated for additional 1 h at 37 C.
(§3) Cells were then washed in PBS and dried before the addition of 100 ul of isopropanol to dissolve the formazan precipitate. The OD of each well was measured with a Genios-Pro plate reader (Tecan) equipped with a 620-nm filter.

[2] = test system: 3T3-L1-derived mature adipocytes; assay: MTT cell viability assay in 3T3-L1-derived mature adipocytes; assay type: cell-based; details: mature 3T3-L1-derived adipocytes
Description: (§4) 3T3-L1 cells were plated in 100 mm plates and differentiated as above to obtain mature adipocytes, at which point they were re-plated into 96-well plates and then treated with the indicated concentrations of cannabinoids for 2 days. Cells were then washed with PBS and stained with AdipoRed (Lonza) and read with a Genios Pro Plate reader (Tecan) according to the manufacturer's instructions.
as §2, §3

[3] = test system: HHL5 cells; assay: Intracellular triglyceride levels (AdipoRed) in oleic acid-treated HHL5 cells, in vitro model of fatty liver disease; assay type: cell-based; details: for intracellular lipid (triglyceride) levels, AdipoRed staining: HHL5 cells co-incubated with 100 uM oleic acid and compound for 24 hr
Description: (§5) HHL-5 cells were cultured in standard growth media (DMEM [Lonza] supplemented with 10% FBS [Lonza], NEAA [Gibco] and Pen.Strep [Gibco]). 3T3-L1 cells were cultured in growth media (GM; DMEM [Lonza] low NaHCO3 (1.5 g/l), supplemented with 10% FBS [Lonza] and pen./strep. [Gibco]).
as §1, §4
HHL5 hepatocytes that have been treated with oleic acid to induce intracellular lipid accumulation are a useful in vitro model for fatty liver disease.

[4] = test system: 3T3-L1-derived mature adipocytes; assay: Intracellular triglyceride levels (AdipoRed) in 3T3-L1-derived mature adipocytes; assay type: cell-based; details: for intracellular lipid stores, AdipoRed staining: mature 3T3-L1-derived adipocytes treated for 48 hours
Description: as §5
In order to induce adipogenesis cells were grown to 100% confluence and then switched to differentiation media (DMEM [Lonza] supplemented with a specific lot of 10% FBS [Lonza], 1 ug/ml Insulin (Sigma), 250 nM Dexamethasone (Sigma), 500 uM MIX (Sigma) and pen./strep. [Gibco]) for 2 days, followed by incubation in DMEM [Lonza] supplemented with a specific lot of 10% FBS [Lonza], 1 ug/ml Insulin (Sigma) and pen./strep. [Gibco] until day 7-10 at which point mature adipocytes are treated with cannabinoids at the indicated concentrations.
as §4

[5] = test system: HHL5 cells; details: Wargent et al., 2013; cited from earlier work

Row | SMILES | toxicity (cell viability, MTT assay) [1] | effect on cellular viability (MTT assay) [2] | intracellular lipid (triglyceride) levels, AdipoRed staining [3] | potency in lowering TG levels compared with parent compound CBD ([3]; HHL5 cells, 100 uM oleic acid, 24 hr) | efficacy in reducing Adipored staining compared with CBD ([4]; mature 3T3-L1-derived adipocytes) | intracellular lipid stores, AdipoRed staining [4] | toxicity (cell viability, MTT assay) ([1]; up to 20 uM) | triglyceride (TG) levels in HHL-5 cells treated with oleic acid [5]
1 | C=C(C)[C@@H]1CCC(CO)=C[C@H]1c1c(O)cc(CCCCC)cc1O [7-OH-CBD, 7-hydroxy-cannabidiol] | neither 11-OH-THCV or 7-OH-CBD were found to be toxic | not associated with any apparent effect on cellular viability | effective at lowering TG levels | even more potent that its parent compound CBD | more efficacious than CBD at reducing Adipored staining | dose-dependently decreased intracellular lipid stores |  | 
2 | CCCc1cc(O)c2c(c1)OC(C)(C)[C@@H]1CCC(CO)=C[C@@H]21 [11-OH-THCV, 11-hydroxy-tetrahydrocannabivarin] | neither 11-OH-THCV or 7-OH-CBD were found to be toxic | not associated with any apparent effect on cellular viability | devoid of lipid lowering activity |  |  | had no effect |  | 
3 | C=C(C)[C@@H]1CCC(C)=C[C@H]1c1c(O)cc(CCCCC)cc1O [CBD, Cannabidiol] |  | not associated with any apparent effect on cellular viability | dose-dependently lowered intracellular lipid levels |  |  | dose-dependently decreased intracellular lipid stores | no toxicity was found | 
4 | CCCc1cc(O)c2c(c1)OC(C)(C)[C@@H]1CCC(C)=C[C@@H]21 [THCV, Tetrahydrocannabivarin] |  | not associated with any apparent effect on cellular viability | dose-dependently lowered intracellular lipid levels |  |  | dose-dependently decreased intracellular lipid stores | no toxicity was found | able to reduce triglyceride (TG) levels in a time dependent manner
